This is an account of results in patent US20250296949A1, “HIGH PURITY NON-ANIMAL DERIVED UDCA” (priority 2021, published 2025).

This series in a line: DVS mass change of crystalline 3,7-DKCA salts. The format is physicochemical.
In the case of `CC(C)(C)N.C[C@H](CCC(=O)O)[C@H]1CC[C@H]2[C@@H]3C(=O)C[C@@H]4CC(=O)CC[C@]4(C)[C@H]3CC[C@]12C` [tert-Butylamine salt, tert-butylamine salt of 3,7-DKCA], the “DVS mass change 5-95% RH (wt. %)” value was 10.89 wt. %.

On to `CC(C)NC(C)C.C[C@H](CCC(=O)O)[C@H]1CC[C@H]2[C@@H]3C(=O)C[C@@H]4CC(=O)CC[C@]4(C)[C@H]3CC[C@]12C` [Diisopropylamine salt, diisopropylamine salt of 3,7-DKCA], for which the “DVS mass change 5-95% RH (wt. %)” value was determined as 2.53 wt. %.

`C[C@H](CCC(=O)O)[C@H]1CC[C@H]2[C@@H]3C(=O)C[C@@H]4CC(=O)CC[C@]4(C)[C@H]3CC[C@]12C.NCCN` [Ethylenediamine salt, ethylenediamine salt of 3,7-DKCA]: the “DVS mass change 5-95% RH (wt. %)” value turned out to be 19.60 wt. %.
